Measured values taken from patent publication US7268241B2, “Method for the production of 4-(17$g(a)-methyl substituted 3-oxoestra-4 9-dien-11$g(b)-yl)benzaldehyd-(1e or 1z)-oximes” (Schering AG, priority 2000, dated 2007).

Assays:
[1] = system: pregnancy in the rat; experiment: Early-abortive action in the rat; assay type: in vivo; details: subcutaneous, 5th to 7th day of pregnancy; dose giving complete inhibition of pregnancy
Experimental: The early-abortive action was determined in the rat after subcutaneous administration from the 5th to the 7th day of pregnancy [administration 0.2 ml/animal/day in benzyl benzoate/castor oil (1+4 v/v)]. The dose indicates what amount must be given to at least 4 animals apiece in comparison to untreated animals, so that a complete inhibition of pregnancy is achieved.

[2] = target: T1, Progesterone Receptor (Oryctolagus cuniculus, UniProt P06186); experiment: Receptor binding affinity, competitive binding of 3H-ORG 2058 tracer in uterus cytosol; details: relative binding affinity; uterus cytosol of the estradiol-primed rabbit; tracer 3H-ORG 2058; reference Progesterone = 100%
T1 construct: receptors in the cytosol from animal target organs; from tissue; host or cells: uterus cytosol of estradiol-primed rabbit
T1 sequence (P06186 1-930): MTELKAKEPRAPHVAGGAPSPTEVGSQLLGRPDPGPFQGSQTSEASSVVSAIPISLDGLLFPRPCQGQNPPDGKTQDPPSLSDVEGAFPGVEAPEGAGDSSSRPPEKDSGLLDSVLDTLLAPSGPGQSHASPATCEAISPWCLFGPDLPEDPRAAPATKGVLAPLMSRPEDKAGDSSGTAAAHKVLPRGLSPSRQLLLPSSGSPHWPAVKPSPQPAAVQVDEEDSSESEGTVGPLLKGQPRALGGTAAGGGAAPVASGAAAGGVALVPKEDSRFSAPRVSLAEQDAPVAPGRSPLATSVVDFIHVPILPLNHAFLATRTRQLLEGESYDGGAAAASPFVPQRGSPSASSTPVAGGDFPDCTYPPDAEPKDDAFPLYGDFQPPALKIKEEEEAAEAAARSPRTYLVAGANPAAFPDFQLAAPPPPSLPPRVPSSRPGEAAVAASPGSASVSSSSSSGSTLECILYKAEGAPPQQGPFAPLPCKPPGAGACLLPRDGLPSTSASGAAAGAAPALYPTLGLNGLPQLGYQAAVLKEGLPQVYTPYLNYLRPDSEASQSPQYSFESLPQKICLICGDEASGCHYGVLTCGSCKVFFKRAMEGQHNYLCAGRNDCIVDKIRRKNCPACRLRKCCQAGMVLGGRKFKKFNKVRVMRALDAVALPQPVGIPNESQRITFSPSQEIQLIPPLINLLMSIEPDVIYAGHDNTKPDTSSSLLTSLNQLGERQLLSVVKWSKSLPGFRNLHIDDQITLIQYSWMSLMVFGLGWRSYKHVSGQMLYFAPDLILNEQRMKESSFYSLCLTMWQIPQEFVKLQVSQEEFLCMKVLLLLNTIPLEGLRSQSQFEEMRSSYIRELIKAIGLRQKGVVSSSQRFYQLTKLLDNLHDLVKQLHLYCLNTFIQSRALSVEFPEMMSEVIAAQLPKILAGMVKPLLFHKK
Experimental: (§1) The receptor binding affinity was determined by competitive binding of a specifically binding ^3H-labeled tracer and the compound to be tested to receptors in the cytosol from animal target organs. In this case, receptor saturation and reaction equilibrium in the case of the following reaction conditions were sought:
(§2) Uterus cytosol of the estradiol-primed rabbit, stored at −30° C., in TED buffer (20 mmol of Tris/HCl, pH 7.4; 1 mmol of ethylenediamine tetraacetate, 2 mmol of dithiothreitol) with 250 mmol of saccharose. • Tracer: ^3H—ORG 2058 • Reference substance: Progesterone Glucocorticoid Receptor: • Thymus cytosol of the adrenalectomized rat, thymi stored at −30° C.; TED buffer • Tracer: ^3H-Dexamethasone, 20 nmol • Reference substance: Dexamethasone

[3] = target: T2, Glucocorticoid Receptor (Rattus norvegicus, UniProt P06536); experiment: Receptor binding affinity, competitive binding of 3H-Dexamethasone tracer in thymus cytosol; details: relative binding affinity; thymus cytosol of the adrenalectomized rat; tracer 3H-Dexamethasone; reference Dexamethasone = 100%
T2 construct: receptors in the cytosol from animal target organs; from tissue; host or cells: thymus cytosol of adrenalectomized rat
T2 sequence (P06536 1-795): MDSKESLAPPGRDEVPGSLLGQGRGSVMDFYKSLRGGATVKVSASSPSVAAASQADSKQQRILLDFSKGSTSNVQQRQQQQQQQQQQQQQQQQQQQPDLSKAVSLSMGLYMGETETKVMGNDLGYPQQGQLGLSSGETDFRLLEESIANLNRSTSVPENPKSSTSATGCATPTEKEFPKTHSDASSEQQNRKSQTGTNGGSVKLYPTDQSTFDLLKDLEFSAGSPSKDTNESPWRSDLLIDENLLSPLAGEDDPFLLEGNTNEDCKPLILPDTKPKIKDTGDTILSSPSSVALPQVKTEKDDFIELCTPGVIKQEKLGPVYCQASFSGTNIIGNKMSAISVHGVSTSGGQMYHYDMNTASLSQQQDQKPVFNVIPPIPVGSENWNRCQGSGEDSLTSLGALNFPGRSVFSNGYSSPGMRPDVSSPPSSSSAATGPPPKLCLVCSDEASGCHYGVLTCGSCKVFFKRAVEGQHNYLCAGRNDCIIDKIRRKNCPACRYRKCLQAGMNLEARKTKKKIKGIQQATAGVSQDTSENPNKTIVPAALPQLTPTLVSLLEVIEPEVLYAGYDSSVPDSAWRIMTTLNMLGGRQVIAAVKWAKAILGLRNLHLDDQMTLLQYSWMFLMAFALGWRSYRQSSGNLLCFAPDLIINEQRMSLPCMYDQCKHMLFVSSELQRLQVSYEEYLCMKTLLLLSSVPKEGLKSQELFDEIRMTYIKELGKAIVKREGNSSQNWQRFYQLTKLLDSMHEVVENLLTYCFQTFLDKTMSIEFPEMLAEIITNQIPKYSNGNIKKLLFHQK
Experimental: as §1, §2

Compound: CC12CC(c3ccc(C=NO)cc3)C3=C4CCC(=O)C=C4CCC3C1CCC2(O)COCC(F)(F)F (stereo not drawn) [4-[17β-Hydroxy-(17α-(1,1,1-trifluoroethoxymethyl)-3-oxoestra-4,9-dien-11β-yl]benzaldehyde-1E-oxime]
- 100% Early-abortive Action in the Rat [1]: 3.0 mg/animal/day
- Progesterone Receptor [Progesterone = 100%] [2]: 177%
- Glucocorticoid Receptor [Dexamethasone = 100%] [3]: 94%

Compound: COCC1(O)CCC2C3CCC4=CC(=O)CCC4=C3C(c3ccc(C=NO)cc3)CC21C (stereo not drawn) [4-[17β-Hydroxy-(17α-(methoxymethyl)-3-oxoestra-4,9-dien-11β-] [4-[17β-Hydroxy-17α-(methoxymethyl)-3-oxoestra-4,9-dien-11β-yl]benzaldehyde-1E-oxime]
- 100% Early-abortive Action in the Rat [1]: 1.0 mg/animal/day
- Glucocorticoid Receptor [Dexamethasone = 100%] [3]: 76%

Compound: COCC1(O)CCC2C3CCC4=CC(=O)CCC4=C3C(c3ccc(C=NO)cc3)CC21C (stereo not drawn) [4-[17β-Hydroxy-(17α-(methoxymethyl)-3-oxoestra-4,9-dien-11β-] [4-[17β-hydroxy-17α-(methoxymethyl)-3-oxoestra-4,9-dien-11β-yl]benzaldehyde-1Z-oxime]
- Glucocorticoid Receptor [Dexamethasone = 100%] [3]: 67%

Compound: COC[C@]1(OC)CC[C@H]2[C@@H]3CCC4=CC(=O)CCC4=C3[C@@H](c3ccc(/C=N/O)cc3)C[C@@]21C [4-[17β-Methoxy-17α-(methoxymethyl)-3-oxoestra-4,9-dien-11β-yl] benzaldehyde-1E-oxime]
- 100% Early-abortive Action in the Rat [1]: 1.0 mg/animal/day
- Progesterone Receptor [Progesterone = 100%] [2]: 302%
- Glucocorticoid Receptor [Dexamethasone = 100%] [3]: 78%

Compound: COCC1(OC)CCC2C3CCC4=CC(=O)CCC4=C3C(c3ccc(C=NO)cc3)CC21C (stereo not drawn) [4-[17β-methoxy-17α-(methoxymethyl)-3-oxoestra-4,9-dien-11β-yl]benzaldehyde-1Z-oxime]
- 100% Early-abortive Action in the Rat [1]: 1.0 mg/animal/day
- Progesterone Receptor [Progesterone = 100%] [2]: 126%
- Glucocorticoid Receptor [Dexamethasone = 100%] [3]: 52%

Compound: CC#C[C@]1(O)CC[C@H]2[C@@H]3CCC4=CC(=O)CCC4=C3[C@@H](c3ccc(N(C)C)cc3)C[C@@]21C [Ru 38 486, reference compound]
- 100% Early-abortive Action in the Rat [1]: 3.0 mg/animal/day
- Progesterone Receptor [Progesterone = 100%] [2]: 685%
